Measured values: patent US9868727B2, “Factor XIa inhibitors” (Merck Sharp & Dohme Corp., priority 2014, dated 2018)

Columns and labels:
[1] = molecular target: T1, purified human Factor XIa (Homo sapiens, UniProt P03951); assay: Factor XIa Assay; type: biochemical; conditions: fluorogenic substrate Z-Gly-Pro-Arg-AFC 100 μM, 40 pM enzyme, pH 7.4, read-out: F11a IC50
T1 construct: purified human Factor XIa; purchased Sekisui Diagnostics
Method: The effectiveness of a compound of the present invention as an inhibitor of Coagulation Factor XIa can be determined using a relevant purified serine protease, and an appropriate synthetic substrate. The rate of hydrolysis of the chromogenic or fluorogenic substrate by the relevant serine protease was measured both in the absence and presence of compounds of the present invention. Assays were conducted at room temperature or at 37° C. […] A decrease in the rate of fluorescence change in the presence of inhibitor is indicative of enzyme inhibition. Such methods are known to one skilled in the art. […]
Factor XIa determinations were made in 50 mM HEPES buffer at pH 7.4 containing 150 mM NaCl, 5 mM CaCl2, and 0.1% PEG 8000 (polyethylene glycol; JT Baker or Fisher Scientific). Determinations were made using purified human Factor XIa at a final concentration of 40 pM (Sekisui Diagnostics) and he synthetic substrate, Z-Gly-Pro-Arg-AFC, TFA salt (Sigma #C0980) at a concentration of 100 μM.
Activity assays were performed by diluting a stock solution of substrate at least tenfold to a final concentration ≦0.1 Km into a solution containing enzyme or enzyme equilibrated with inhibitor. Times required to achieve equilibration between enzyme and inhibitor were determined in control experiments. Initial velocities of product formation in the absence (VO) or presence of inhibitor (Vi) were measured. Assuming competitive inhibition, and that unity is negligible compared Km/[S], [I]/e, and [I]/e (where [S], [I], and e respectively represent the total concentrations, of substrate, inhibitor and enzyme), the equilibrium constant (Ki) for dissociation of the inhibitor from the enzyme can be obtained from the dependence of VO/Vi on [I] shown in the following equation.

[2] = molecular target: T2, purified Human plasma kallikrein (Homo sapiens, UniProt P03952); assay: Kallikrein Assay; type: biochemical; conditions: Plasma Kallekrein IC50; fluorogenic substrate Acetyl-K-P-R-AFC, 0.5 nM enzyme, pH 7.4; read-out: PK IC50
T2 construct: yields a heavy chain (371 amino acids) and a light chain (248 amino acids); purchased Enzyme Research Laboratories
Method: The effectiveness of a compound of the present invention as an inhibitor of Kallikrein can be determined using a relevant purified serine protease, and an appropriate synthetic substrate. The rate of hydrolysis of the chromogenic or fluorogenic substrate by the relevant serine protease was measured both in the absence and presence of compounds of the present invention. Assays were conducted at room temperature or at 37° C. […] A decrease in the rate of fluorescence change in the presence of inhibitor is indicative of enzyme inhibition. Such methods are known to one skilled in the art. The results of this assay are expressed as the inhibitory constant, K1.
Kallikrein determinations were made in 50 mM HEPES buffer at pH 7.4 containing 150 mM NaCl, 5 mM CaCl2, and 0.1% PEG 8000 (polyethylene glycol; Fisher Scientific). Determinations were made using purified Human plasma kallikrein at a final concentration of 0.5 nM (Enzyme Research Laboratories) and the synthetic substrate, Acetyl-K—P—R-AFC (Sigma # C6608) at a concentration of […].
Times required to achieve equilibration between enzyme and inhibitor were determined in control experiments. The reactions were performed under linear progress curve conditions and fluorescence increase measured at 405 Ex/510 Em nm. […] IC50 was determined by inflection point from a four parameter logistic curve fit. Ki was calculated using the Cheng Prusoff equation, Ki=IC50/(1+([S]/Km)).

T1 sequence (P03951 388-625 limits assumed): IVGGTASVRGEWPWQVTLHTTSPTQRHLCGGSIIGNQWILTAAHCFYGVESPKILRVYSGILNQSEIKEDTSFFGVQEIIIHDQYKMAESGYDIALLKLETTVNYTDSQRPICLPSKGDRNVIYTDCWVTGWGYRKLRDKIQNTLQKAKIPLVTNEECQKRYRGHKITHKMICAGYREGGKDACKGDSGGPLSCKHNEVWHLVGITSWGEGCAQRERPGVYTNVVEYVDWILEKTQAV
T1 sequence (P03951 19-387 partner limits assumed): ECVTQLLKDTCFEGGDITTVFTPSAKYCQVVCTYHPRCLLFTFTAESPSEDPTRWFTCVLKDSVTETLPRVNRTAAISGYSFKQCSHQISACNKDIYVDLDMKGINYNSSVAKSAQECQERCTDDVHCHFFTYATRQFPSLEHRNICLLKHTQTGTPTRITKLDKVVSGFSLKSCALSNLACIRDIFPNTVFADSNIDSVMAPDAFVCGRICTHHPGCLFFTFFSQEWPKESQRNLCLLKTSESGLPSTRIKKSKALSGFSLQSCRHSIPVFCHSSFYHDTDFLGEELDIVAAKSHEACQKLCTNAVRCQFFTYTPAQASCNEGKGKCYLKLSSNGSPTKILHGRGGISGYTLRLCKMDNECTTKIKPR
T2 sequence (P03952 391-638 limits assumed): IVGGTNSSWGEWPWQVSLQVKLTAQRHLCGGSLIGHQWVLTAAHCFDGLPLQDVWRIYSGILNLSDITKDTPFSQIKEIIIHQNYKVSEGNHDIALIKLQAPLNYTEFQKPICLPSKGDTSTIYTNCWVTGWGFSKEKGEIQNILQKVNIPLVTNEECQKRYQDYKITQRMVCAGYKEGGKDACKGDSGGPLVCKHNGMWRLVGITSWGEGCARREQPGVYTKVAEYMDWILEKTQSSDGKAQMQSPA
T2 sequence (P03952 20-390 partner limits assumed): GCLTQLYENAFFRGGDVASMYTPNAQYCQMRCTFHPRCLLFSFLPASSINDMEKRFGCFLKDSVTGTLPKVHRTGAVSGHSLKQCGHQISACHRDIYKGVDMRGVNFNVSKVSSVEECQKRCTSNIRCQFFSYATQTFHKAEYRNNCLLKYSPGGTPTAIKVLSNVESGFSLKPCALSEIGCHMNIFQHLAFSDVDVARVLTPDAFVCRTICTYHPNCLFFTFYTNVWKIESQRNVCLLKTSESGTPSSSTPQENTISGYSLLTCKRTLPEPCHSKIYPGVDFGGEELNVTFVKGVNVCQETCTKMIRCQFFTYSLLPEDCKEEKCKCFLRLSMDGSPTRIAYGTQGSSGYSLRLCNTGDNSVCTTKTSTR

Row | Structure (SMILES) | IC50 [1] [nM] | IC50 [2] [nM]
1 | Nc1ccc(-c2c[nH]c(C(CC3CC3)c3ccc(-c4cc(Cl)ccc4-n4cnnn4)c[n+]3[O-])n2)cn1 (single isomer, unassigned) [Example 49] | 19.5 | 2120
2 | Nc1ccc(-c2c[nH]c(C(CC3CC3)c3ccc(-c4cc(Cl)ccc4-n4cnnn4)c[n+]3[O-])n2)cn1 (single isomer, unassigned) [Example 50] | 1.08 | 228
3 | O=C(O)c1cccc(-c2c[nH]c(C(CC3CC3)c3ccc(-c4cc(Cl)ccc4-n4cnnn4)c[n+]3[O-])n2)c1 (single isomer, unassigned) [Example 53] | 0.9 | 62
4 | COC(=O)Nc1ccc(-c2cnc(C(CC3CC3)c3ccc(-c4cc(Cl)ccc4-c4cnco4)c[n+]3[O-])[nH]2)cc1 (single isomer, unassigned) [Example 69] | 48 | 358
5 | COC(=O)Nc1ccc(-c2[nH]c(C(CC3CC3)c3ccc(-c4cc(Cl)ccc4-n4cnnn4)c[n+]3[O-])nc2C)cc1 (single isomer, unassigned) [Example 76, methyl {4-[2-(1-{5-[5-chloro-2-(1H-tetrazol-1-yl)phenyl]-1-oxidopyridin-2-yl}-2-cyclopropylethyl)-4-methyl-1H-imidazol-5-yl]phenyl}carbamate] | 36.8 | 802
6 | COC(=O)Nc1ccc(-c2[nH]c(C(CC3CC3)c3ccc(-c4cc(Cl)ccc4-n4cnnn4)c[n+]3[O-])nc2C)cc1 (single isomer, unassigned) [Example 77, methyl {4-[2-(1-{5-[5-chloro-2-(1H-tetrazol-1-yl)phenyl]-1-oxidopyridin-2-yl}-2-cyclopropylethyl)-4-methyl-1H-imidazol-5-yl]phenyl}carbamate] | 1.52 | 48
7 | COC(=O)Nc1ccc(-c2[nH]c(C(CC3CC3)c3ccc(-c4cc(Cl)ccc4-n4cnnn4)c[n+]3[O-])nc2Cl)cc1 (single isomer, unassigned) [Example 79, 5-(5-chloro-2-(1H-tetrazol-1-yl)phenyl)-2-(1-(4-chloro-5-(4-((methoxycarbonyl)amino)phenyl)-1H-imidazol-2-yl)-2-cyclopropylethyl)pyridine 1-oxide] | 0.5 | 24
8 | COC(=O)Nc1ccc(-c2nc([C@H](Cc3ccccc3)c3ccc(-c4cc(Cl)ccc4-n4cnnn4)c[n+]3[O-])[nH]c2Cl)cc1 [Example 1, (R) 5-(5-Chloro-2-(1H-tetrazol-1-yl)phenyl)-2-(1-(5-chloro-4-(4-((methoxycarbonyl)amino)phenyl)-1H-imidazol-2-yl)-2-phenylethyl)pyridine 1-oxide] | 1.34 | 1.52
9 | COC(=O)Nc1ccc(-c2nc([C@@H](Cc3ccccc3)c3ccc(-c4cc(Cl)ccc4-n4cnnn4)c[n+]3[O-])[nH]c2Cl)cc1 [Example 2, (S) 5-(5-Chloro-2-(1H-tetrazol-1-yl)phenyl)-2-(1-(5-chloro-4-(4-((methoxycarbonyl)amino)phenyl)-1H-imidazol-2-yl)-2-phenylethyl)pyridine 1-oxide] | 2.82 | 76.1
10 | COC(=O)Nc1ccc(-c2cnc([C@H](Cc3ccccc3)c3ccc(-c4c(-n5cnnn5)ccc(Cl)c4F)c[n+]3[O-])[nH]2)cc1 [Example 23] | 1.04 | 1.54
11 | COC(=O)Nc1ccc(-c2cnc([C@@H](Cc3ccccc3)c3ccc(-c4c(-n5cnnn5)ccc(Cl)c4F)c[n+]3[O-])[nH]2)cc1 [Example 24] | 2.36 | 88.7
12 | COC(=O)Nc1ccc(-c2cnc([C@H](Cc3ccccc3)c3ccc(-c4cc(Cl)ccc4-c4cnco4)c[n+]3[O-])[nH]2)cc1 [Example 25] | 3.31 | 24.1

The remaining lines, values ahead:

Row | IC50 [1] [nM] | IC50 [2] [nM] | Structure (SMILES)
13 | 0.32 | 80 | Nc1ccc(-c2cnc(C(CC3CC3)c3ccc(-c4cc(Cl)ccc4-n4cnnn4)c[n+]3[O-])[nH]2)c(Cl)n1 (single isomer, unassigned) [Example 47, 6-chloro-5-[2-(1-{5-[5-chloro-2-(1H-tetrazol-1-yl)phenyl]-1-oxidopyridin-2-yl}-2-cyclopropylethyl)-1H-imidazol-5-yl]pyridin-2-amine]
14 | 0.87 | 80 | O=C(O)c1cccc(-c2cnc(C(CC3CC3)c3ccc(-c4cc(Cl)ccc4-n4cnnn4)c[n+]3[O-])[nH]2)c1F (single isomer, unassigned) [Example 51, 3-[2-(1-{5-[5-chloro-2-(1H-tetrazol-1-yl)phenyl]-1-oxidopyridin-2-yl}-2-cyclopropylethyl)-1H-imidazol-5-yl]-2-fluorobenzoic acid]
15 | 11 | 241 | O=C(O)c1ccc(-c2cnc(C(CC3CC3)c3ccc(-c4cc(Cl)ccc4-n4cnnn4)c[n+]3[O-])[nH]2)cc1 (single isomer, unassigned) [Example 56]
16 | 1.5 | 58 | O=C(O)c1scc(-c2cnc(C(CC3CC3)c3ccc(-c4cc(Cl)ccc4-n4cnnn4)c[n+]3[O-])[nH]2)c1F (single isomer, unassigned) [Example 57, 2-(1-(5-(5-carboxy-4-fluorothiophen-3-yl)-1H-imidazol-2-yl)-2-cyclopropylethyl)-5-(5-chloro-2-(1H-tetrazol-1-yl)phenyl)pyridine 1-oxide]
17 | 11.8 | 1050 | O=C(O)c1scc(-c2cnc(C(CC3CC3)c3ccc(-c4cc(Cl)ccc4-n4cnnn4)c[n+]3[O-])[nH]2)c1F (single isomer, unassigned) [Example 58, 2-(1-(5-(5-carboxy-4-fluorothiophen-3-yl)-1H-imidazol-2-yl)-2-cyclopropylethyl)-5-(5-chloro-2-(1H-tetrazol-1-yl)phenyl)pyridine 1-oxide]
18 | 4.9 | 76 | NC(=O)c1scc(-c2cnc(C(CC3CC3)c3ccc(-c4cc(Cl)ccc4-n4cnnn4)c[n+]3[O-])[nH]2)c1F (single isomer, unassigned) [Example 60, 2-(1-(5-(5-carbamoyl-4-fluorothiophen-3-yl)-1H-imidazol-2-yl)-2-cyclopropylethyl)-5-(5-chloro-2-(1H-tetrazol-1-yl)phenyl)pyridine 1-oxide]
19 | 53 | 343 | COC(=O)c1scc(-c2cnc(C(CC3CC3)c3ccc(-c4cc(Cl)ccc4-n4cnnn4)c[n+]3[O-])[nH]2)c1F (single isomer, unassigned) [Example 61, Methyl 4-[2-(1-{5-[5-chloro-2-(1H-tetrazol-1-yl)phenyl]-1-oxidopyridin-2-yl}-2-cyclopropylethyl)-1H-imidazol-5-yl]-3-fluorothiophene-2-carboxylate]
